# According to ChEMBL document CHEMBL1201862, “PubChem BioAssay data set” (2004):
#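 Following 48 hours of exposure in 96-well plates, responses at five concentrations were used to interpolate endpoints linearly. GI50 is the concentration that inhibits growth by half.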 Active and inactive are the calls of the source. Cut-off read from the data, not from the text of the source: active = GI50 up to about 1.1 µM and inactive = higher.
# Legend:
# Test in all cases: DTP human tumour cell line panel, 48 h
# 786-0 = tested on: 786-0
# A549 = tested on: A549
# BT-549 = tested on: BT-549
# COLO 205 = tested on: COLO 205
# HCT-15 = tested on: HCT-15
# HL-60 = tested on: HL-60
# HOP-92 = tested on: HOP-92
# K562 = tested on: K562
# MDA-MB-435 = tested on: MDA-MB-435
# MOLT-4 = tested on: MOLT-4
# Malme-3M = tested on: Malme-3M
# OVCAR-4 = tested on: OVCAR-4
# OVCAR-5 = tested on: OVCAR-5
# OVCAR-8 = tested on: OVCAR-8
# RXF 393 = tested on: RXF 393
# SK-MEL-5 = tested on: SK-MEL-5
# SNB-19 = tested on: SNB-19
# SR = tested on: SR
# CCRF-CEM = tested on: CCRF-CEM
# NCI-H460 = tested on: NCI-H460
Structure (SMILES),GI50 (786-0),GI50 (A549),GI50 (BT-549),GI50 (COLO 205),GI50 (HCT-15) [µM],GI50 (HL-60),GI50 (HOP-92),GI50 (K562),GI50 (MDA-MB-435),GI50 (MOLT-4),GI50 (Malme-3M),GI50 (OVCAR-4),GI50 (OVCAR-5),GI50 (OVCAR-8),GI50 (RXF 393),GI50 (SK-MEL-5),GI50 (SNB-19),GI50 (SR),GI50 (CCRF-CEM),GI50 (NCI-H460)
CCC1c2[nH]c3ccccc3c2C[C@H]2C(=O)N3CCC[C@H]3C(=O)N12 (some centres not stated),> 100 µM (inactive),> 100 µM (inactive),> 100 µM (inactive),> 100 µM (inactive),53.7,> 100 µM (inactive),> 100 µM (inactive),> 100 µM (inactive),> 100 µM (inactive),97.7 µM (inactive),42.5 µM (inactive),> 100 µM (inactive),> 100 µM (inactive),> 100 µM (inactive),> 100 µM (inactive),30.4 µM (inactive),> 100 µM (inactive),59.3 µM (inactive),–,–
O=c1oc2ccccc2c(Nc2ccc3c(c2)Sc2ccccc2O3)c1[N+](=O)[O-],22.7 µM (inactive),21.1 µM (inactive),27.8 µM (inactive),16.3 µM (inactive),25.1,29.7 µM (inactive),20.7 µM (inactive),20 µM (inactive),29.2 µM (inactive),–,21.2 µM (inactive),25 µM (inactive),34.6 µM (inactive),30.8 µM (inactive),23.4 µM (inactive),15.8 µM (inactive),27 µM (inactive),24.8 µM (inactive),31.7 µM (inactive),17.3 µM (inactive)
CCOC(=O)C1=C(C)OC2(O)C=CC(O)=C3C(=O)N(c4ccccc4)C(=O)C312 (configuration not stated),40.5 µM (inactive),> 100 µM (inactive),31.6 µM (inactive),43.1 µM (inactive),30.6,29.4 µM (inactive),21 µM (inactive),32.7 µM (inactive),37.8 µM (inactive),29.7 µM (inactive),20 µM (inactive),31.5 µM (inactive),58.5 µM (inactive),52 µM (inactive),26.4 µM (inactive),–,22.8 µM (inactive),18.9 µM (inactive),–,> 100 µM (inactive)
CC(=O)Oc1cc(C)c(OC(C)=O)c2c1[C@H]1CC[C@]3(C)[C@@H](OC(C)=O)CC[C@H]3[C@@H]1CC2,21.8 µM (inactive),17.5 µM (inactive),15.9 µM (inactive),–,17.5,20 µM (inactive),11.5 µM (inactive),23.7 µM (inactive),14.4 µM (inactive),11.6 µM (inactive),17.4 µM (inactive),–,21.5 µM (inactive),20.5 µM (inactive),16.8 µM (inactive),17.5 µM (inactive),17.8 µM (inactive),29.8 µM (inactive),17.9 µM (inactive),17.7 µM (inactive)
O=C(O)CNC(=O)C1NC(C(F)(F)F)(C(F)(F)F)OC1(C(F)(F)F)C(F)(F)F (configuration not stated),> 100 µM (inactive),> 100 µM (inactive),> 100 µM (inactive),> 100 µM (inactive),> 100,> 100 µM (inactive),> 100 µM (inactive),> 100 µM (inactive),> 100 µM (inactive),> 100 µM (inactive),> 100 µM (inactive),> 100 µM (inactive),> 100 µM (inactive),> 100 µM (inactive),> 100 µM (inactive),> 100 µM (inactive),> 100 µM (inactive),> 100 µM (inactive),–,> 100 µM (inactive)
N/N=C(\C(=O)Nc1ccc([N+](=O)[O-])cc1)C(C1=Nc2cc([N+](=O)[O-])ccc2NC1)[N+](=O)[O-] (configuration not stated),> 100 µM (inactive),55.8 µM (inactive),> 100 µM (inactive),–,> 100,> 100 µM (inactive),> 100 µM (inactive),> 100 µM (inactive),88.3 µM (inactive),> 100 µM (inactive),> 100 µM (inactive),> 100 µM (inactive),> 100 µM (inactive),> 100 µM (inactive),> 100 µM (inactive),74.1 µM (inactive),> 100 µM (inactive),> 100 µM (inactive),65.2 µM (inactive),42.2 µM (inactive)
CC1OC(OC2C(Oc3cc(O)c4c(c3)O[C@H](c3ccc(O)cc3)CC4=O)OC(CO)C(O)C2O)C(O)C(O)C1O (some centres not stated),> 100 µM (inactive),> 100 µM (inactive),> 100 µM (inactive),> 100 µM (inactive),> 100,> 100 µM (inactive),> 100 µM (inactive),–,> 100 µM (inactive),> 100 µM (inactive),> 100 µM (inactive),> 100 µM (inactive),> 100 µM (inactive),> 100 µM (inactive),> 100 µM (inactive),> 100 µM (inactive),–,> 100 µM (inactive),> 100 µM (inactive),–
O=C1CSc2ccnc(=O)n21,> 100 µM (inactive),> 100 µM (inactive),> 100 µM (inactive),> 100 µM (inactive),–,> 100 µM (inactive),> 100 µM (inactive),–,> 100 µM (inactive),> 100 µM (inactive),> 100 µM (inactive),> 100 µM (inactive),> 100 µM (inactive),> 100 µM (inactive),> 100 µM (inactive),> 100 µM (inactive),> 100 µM (inactive),> 100 µM (inactive),> 100 µM (inactive),> 100 µM (inactive)
COc1cc(Nc2nc3ccccc3nc2C(=O)O)cc(OC)c1OC,75.3 µM (inactive),> 100 µM (inactive),89.9 µM (inactive),> 100 µM (inactive),32.4,> 100 µM (inactive),25.9 µM (inactive),> 100 µM (inactive),> 100 µM (inactive),> 100 µM (inactive),> 100 µM (inactive),–,> 100 µM (inactive),> 100 µM (inactive),> 100 µM (inactive),49.2 µM (inactive),70.6 µM (inactive),> 100 µM (inactive),83.2 µM (inactive),65.3 µM (inactive)
Nc1nc(N)c(N=O)c(Nc2ccc(O)cc2)n1,> 55.7 µM (inactive),> 81.3 µM (inactive),> 40.4 µM (inactive),57.5 µM (inactive),> 57.3,9.53 µM (inactive),20.8 µM (inactive),> 45.6 µM (inactive),38.7 µM (inactive),16.1 µM (inactive),33.4 µM (inactive),> 48.8 µM (inactive),–,32 µM (inactive),93.3 µM (inactive),26.5 µM (inactive),> 52 µM (inactive),14.8 µM (inactive),14.9 µM (inactive),> 61.1 µM (inactive)
CC(C)=CCC/C(C)=C/COC(C)(C)C1=CCC(C)CC1.CC(C)=CCC/C(C)=C/COC1CC(C)CCC1=C(C)C (configuration not stated),> 100 µM (inactive),> 100 µM (inactive),> 100 µM (inactive),> 100 µM (inactive),> 100,22 µM (inactive),> 100 µM (inactive),–,> 100 µM (inactive),18.2 µM (inactive),> 100 µM (inactive),> 100 µM (inactive),> 100 µM (inactive),> 100 µM (inactive),> 100 µM (inactive),> 100 µM (inactive),> 100 µM (inactive),18.9 µM (inactive),–,> 100 µM (inactive)
